Results taken from PMC5047629, “Synthesis, Pharmacological Profile and Docking Studies of New Sulfonamides Designed as Phosphodiesterase-4 Inhibitors” (PLoS ONE, 2016).

Tests used:
[1] = test system: A/J mice; assay: Duration of xylazine/ketamine anesthesia (behavioral correlate of emesis); format: in vivo; conditions: 5.8 μmol/kg oral; n = 5; P<0.01
Method: This assessment was carried out as previously reported. […] The animals were placed in dorsal position and their spontaneous return to the prone position was used as an endpoint to determine anesthesia duration.

[2] = test system: A/J mice; assay: LPS-induced lung inflammation and airway hyper-reactivity; format: in vivo; conditions: LASSBio-448 2.5 and 10 mg/kg oral, cilomilast 1 mg/kg oral, 1 h before LPS, 24 h post-challenge
Method: A/J mice were anesthetized with isoflurane aerosol and then challenged with LPS (25μg/25 μL) or phosphate buffered solution (PBS) by intranasal instillation as reported. The analyses were performed 24 h after stimulation. Treatment with LASSBio-448 (2.5–10 mg/kg/mice) or cilomilast (1 mg/kg) was performed orally, 1 h before LPS exposure. LASSBio-448 was dissolved in 0.2% Tween 80, while cilomilast was dissolved in 1 M NaOH and further neutralized with 1 N HCl, before adjusting the final volume with 0.9% NaCl solution (saline). The substances were dissolved immediately before use.
Airflow and transpulmonary pressure were recorded with a Buxco pulmonary mechanics processing system (Buxco Electronics, Sharon, CT), which calculated resistance (cmH2O.s/ml) and dynamic lung compliance (mL/cmH2O) in each breath cycle. Elastance was calculated as the inverse of compliance values. Mice were anesthetized with nembutal (60 mg/kg), and the neuromuscular activity was blocked with bromide pancuronium (1 mg/kg). Animals were allowed to stabilize for 5 min and increasing concentrations of methacholine (3–27 mg/mL) were aerosolized for 5 min each. Baseline pulmonary parameters were assessed with aerosolized phosphate buffer solution (PBS).
The MPO activity present in the lung tissue was colorimetrically determined as described by Hirano (1996), with minor changes. Briefly, after lung perfusion with 20 mM EDTA in 0.9% saline, lung samples were homogenized in Hank´s balanced solution (HBSS) at pH 7.4. The homogenates were centrifuged for 10 min at 1300 xg and 4°C. Red blood cells were removed by hypotonic and hypertonic lysis and suspended cells were re-centrifuged as described above. The pellet was then suspended in HBSS at pH 7.4 containing 0.5% hexadecyltrimethyl ammonium bromide (HTAB). The homogenates were centrifuged for 30 min at 12500 xg and 4°C. The supernatants were then collected and incubated with 0.167 mg/mL of ortho-dianisidine dihydrochloride for 15 min at 37°C, after which 0.0006% H2O2 in 50 mM phosphate buffer at pH 6 was added. The reaction was stopped 10 min later by adding 50 μL of 1% sodium azide. The measurement was done at 460 nm using the SpectraMax M5 microplate reader (Molecular Devices).

[3] = test system: PDE3; assay: PDE3 activity inhibition; format: biochemical

| SMILES | reduction of sleep time (duration of xylazine/ketamine anesthesia) [1] | LPS-induced airway hyper-reactivity (lung elastance after methacholine 3–27 mg/ml) ([2]; Fig 9A) | neutrophil infiltration into the lung tissue (MPO activity) ([2]; Fig 9B) | IC50 [3] |
| --- | --- | --- | --- | --- |
| COc1ccc([C@]2(C#N)CC[C@@H](C(=O)O)CC2)cc1OC1CCCC1 [cilomilast, reference compound] | 28.4% | blockade | blockade | – |
| Cc1[nH]c(=O)c(C#N)cc1-c1ccncc1 [milrinone, reference compound] | – | – | – | 3.2 µM |
